Measured values as given in PMC11240139, “Exploring the antitumor potential of novel quinoline derivatives via tubulin polymerization inhibition in breast cancer; design, synthesis and molecular docking” (RSC Advances, 2024).

Key:
Type in all cases: cell-based
[1] = test system: SNB-19 (CNS cancer); assay: NCI-60 SRB cytotoxicity screen
[2] = test system: CCRF-CEM (leukemia); assay: NCI-60 SRB cytotoxicity screen
[3] = test system: M14 (melanoma); assay: NCI-60 SRB cytotoxicity screen
[4] = test system: MDA-MB-231/ATCC (breast cancer); assay: NCI-60 SRB cytotoxicity screen
[5] = test system: HCC-2998 (colon cancer); assay: NCI-60 SRB cytotoxicity screen
[6] = test system: NCI/ADR-RES (ovarian cancer); assay: NCI-60 SRB cytotoxicity screen
[7] = test system: OVCAR-5 (ovarian cancer); assay: NCI-60 SRB cytotoxicity screen
[8] = test system: 60 cancer cell lines (NCI); assay: NCI-60 single-dose screen, overall verdict over the panel; conditions: single dose 10 μM, whole panel
Experimental: The cytotoxic activity of the synthesized quinoline derivatives was determined by the national cancer institute (NCI, Bethesda, Maryland, USA) against 60 different cancer cell lines at a single high dose (10^−5 M) in the full NCI 60 cell panel using the sulforhodamine B assay for cell viability evaluation. In summary, 5 × 10^3 cells were in 96-well plate and incubated in complete media for 24 h. Cells were treated with 100 μL of media containing each newly synthesized compound. After drug exposure, cells were fixed by replacing media with 150 μL of 10% TCA and incubated at 4 °C for 1 h. The TCA solution was removed, and the cells were washed 5 times with distilled water. Aliquots of 70 μL SRB solution (0.4% w/v) were added and incubated in a dark place at room temperature for 10 min. The plates were washed 3 times with 1% acetic acid and allowed to air-dry overnight. Then, 150 μL of TRIS (10 mM) was added to dissolve protein-bound SRB stain. The absorbance was measured at 540 nm.% Cytotoxicity = [1 − (AVx/AVNC)] × 100where AVx denotes the average absorbance of the sample well and AVNC denotes the average absorbance of the negative control.

[9] = test system: OVCAR-8 (ovarian cancer); assay: NCI-60 SRB cytotoxicity screen
[10] = test system: RPMI-8226 (leukemia); assay: NCI-60 SRB cytotoxicity screen
[11] = test system: SK-MEL-2 (melanoma); assay: NCI-60 SRB cytotoxicity screen
[12] = test system: MALME-3M (melanoma); assay: NCI-60 SRB cytotoxicity screen
[13] = test system: SF-268 (CNS cancer); assay: NCI-60 SRB cytotoxicity screen
[14] = test system: SNB-75 (CNS cancer); assay: NCI-60 SRB cytotoxicity screen
[15] = test system: SW-620 (colon cancer); assay: NCI-60 SRB cytotoxicity screen
[16] = test system: SF-295 (CNS cancer); assay: NCI-60 SRB cytotoxicity screen
[17] = test system: BT-549 (breast cancer); assay: NCI-60 SRB cytotoxicity screen
[18] = test system: U251 (CNS cancer); assay: NCI-60 SRB cytotoxicity screen
[19] = test system: COLO 205 (colon cancer); assay: NCI-60 SRB cytotoxicity screen; conditions: COLO 205, five-dose assay
[20] = Homo sapiens, SNB-19, five-dose assay
[21] = Homo sapiens, single dose 10 μM, read-out: growth inhibition (GI%)
[22] = Homo sapiens, M14, five-dose assay
[23] = Homo sapiens, HCC-2998, five-dose assay
[24] = Homo sapiens, five-dose assay, read-out: LC50 (the source's name)
[25] = Homo sapiens, SW-620, five-dose assay
[26] = Homo sapiens, SF-295, five-dose assay
[27] = Homo sapiens, BT-549, five-dose assay
[28] = Homo sapiens, U-251, U251, five-dose assay

## CCc1cccc2cc(-c3cc(-c4cc(OC)c(OC)c(OC)c4)[nH]c(=O)c3C#N)c(Cl)nc12 [Compound 4c, 4-(2-Chloro-8-ethylquinolin-3-yl)-2-oxo-6-(3,4,5-trimethoxyphenyl)-1,2-dihydropyridine-3-carbonitrile]
[1]; [20]
  GI50: 9.25 µM
  LC50 (50% lethal concentration): > 100 µM
[1]; Homo sapiens, SNB-19, single dose 10 μM, read-out: growth inhibition (GI%)
  inhibition at 10 µM: 89.6%
[1]; SNB-19, five-dose assay
  TGI: 50.90 µM
[2]; Homo sapiens, five-dose assay
  GI50: 12 µM
  LC50: > 100 µM
[2]; [21]
  inhibition at 10 µM: 80.4%
[2]; five-dose assay
  TGI: >100 µM
[3]; [22]
  GI50: 29.7 µM
  LC50: > 100 µM
[3]; Homo sapiens, M14, single dose 10 μM, read-out: growth inhibition (GI%)
  inhibition at 10 µM: 42.8%
[3]; M14, five-dose assay
  TGI: >100 µM
[4]; Homo sapiens, MDA-MB-231
  GI50: 14.5 µM
[4]; Homo sapiens, MDA-MB-231, read-out: growth inhibition (GI%)
  inhibition at 10 µM: > 100%
[4]; Homo sapiens, MDA-MB-231/ATCC, five-dose assay, read-out: LC50 (the source's name)
  CC50: 69.8 µM
[4]; MDA-MB-231/ATCC, five-dose assay
  TGI: 31.80 µM
[4]; MDA-MB-231/ATCC, single dose 10 μM
  growth inhibition (GI%): lethal effect
[5]; HCC-2998, five-dose assay
  TGI: >100 µM
[5]; [23]
  GI50: 35.7 µM
  LC50 (50% lethal concentration): > 100 µM
[5]; Homo sapiens, HCC-2998, single dose 10 μM, read-out: growth inhibition (GI%)
  inhibition at 10 µM: 47%
[6]; Homo sapiens, five-dose assay
  GI50: 44.9 µM
[6]; [24]
  CC50: > 100 µM
[6]; [21]
  inhibition at 10 µM: 59.9%
[6]; five-dose assay
  TGI: >100 µM
[7]; Homo sapiens, OVCAR-5, five-dose assay
  GI50: 48.4 µM
[7]; Homo sapiens, OVCAR-5, five-dose assay, read-out: LC50 (the source's name)
  CC50: > 100 µM
[7]; Homo sapiens, OVCAR-5, single dose 10 μM, read-out: growth inhibition (GI%)
  inhibition at 10 µM: 33.3%
[7]; OVCAR-5, five-dose assay
  TGI: >100 µM
[8]
  cytotoxic activity over the cell lines (in words): highest level of cytotoxic activity
[9]; Homo sapiens, OVCAR-8, five-dose assay
  GI50: 18.5 µM
[9]; Homo sapiens, OVCAR-8, five-dose assay, read-out: LC50 (the source's name)
  CC50: > 100 µM
[9]; Homo sapiens, OVCAR-8, single dose 10 μM, read-out: growth inhibition (GI%)
  inhibition at 10 µM: 92.1%
[9]; OVCAR-8, five-dose assay
  TGI: 93.60 µM
[10]; Homo sapiens, RPMI-8226, five-dose assay
  GI50: 5.16 µM
[10]; Homo sapiens, RPMI-8226, five-dose assay, read-out: LC50 (the source's name)
  CC50: > 100 µM
[10]; Homo sapiens, RPMI-8226, single dose 10 μM, read-out: growth inhibition (GI%)
  inhibition at 10 µM: 74.5%
[10]; RPMI-8226, five-dose assay
  TGI: >100 µM
[11]; Homo sapiens, SK-MEL-2, five-dose assay
  GI50: 39.8 µM
[11]; Homo sapiens, SK-MEL-2, five-dose assay, read-out: LC50 (the source's name)
  CC50: > 100 µM
[11]; Homo sapiens, SK-MEL-2, single dose 10 μM, read-out: growth inhibition (GI%)
  inhibition at 10 µM: 29.8%
[11]; SK-MEL-2, five-dose assay
  TGI: >100 µM
[12]; Homo sapiens, five-dose assay
  GI50: 10.1 µM
[12]; [24]
  CC50: > 100 µM
[12]; [21]
  inhibition at 10 µM: 89.4%
[12]; five-dose assay
  TGI: 40.00 µM
[13]; Homo sapiens, SF-268, five-dose assay
  GI50: 13.8 µM
[13]; Homo sapiens, SF-268, five-dose assay, read-out: LC50 (the source's name)
  CC50: > 100 µM
[13]; Homo sapiens, SF-268, single dose 10 μM, read-out: growth inhibition (GI%)
  inhibition at 10 µM: 34.4%
[13]; SF-268, five-dose assay
  TGI: >100 µM
[14]; Homo sapiens, SNB-75, SNB-75, single dose 10 μM, read-out: growth inhibition (GI%)
  inhibition at 10 µM: > 100%
[14]; Homo sapiens, SNB-75, five-dose assay
  GI50: 2.38 µM
[14]; Homo sapiens, SNB-75, five-dose assay, read-out: LC50 (the source's name)
  CC50: 52.6 µM
[14]; SNB-75, five-dose assay
  TGI: 16.90 µM
[15]; [25]
  GI50: 27.5 µM
  LC50 (lethal concentration, 50% net cell kill): > 100 µM
[15]; Homo sapiens, SW-620, single dose 10 μM, read-out: growth inhibition (GI%)
  inhibition at 10 µM: 17.4%
[15]; SW-620, five-dose assay
  TGI: >100 µM
[16]; [26]
  GI50: 19.4 µM
  LC50: > 100 µM
[16]; Homo sapiens, SF-295, single dose 10 μM, read-out: growth inhibition (GI%)
  inhibition at 10 µM: 96.4%
[16]; SF-295, five-dose assay
  TGI: >100 µM
[17]; BT-549, five-dose assay
  TGI: 28.10 µM
[17]; [27]
  GI50: 4.11 µM
  LC50: > 100 µM
[17]; Homo sapiens, BT-549, single dose 10 μM, read-out: growth inhibition (GI%)
  inhibition at 10 µM: 57.5%
[18]; [28]
  GI50: 10.8 µM
  LC50 (concentration killing 50% of cells): 74.9 µM
[18]; Homo sapiens, U-251, U251, single dose 10 μM, read-out: growth inhibition (GI%)
  inhibition at 10 µM: > 100%
[18]; U251, five-dose assay
  TGI: 28.40 µM
[18]; U251, single dose 10 μM
  growth inhibition (GI%): lethal effect
[19]
  TGI: >100 µM
[19]; Homo sapiens
  GI50: 45.6 µM
